Measured values from patent US20170209444A1, “METHODS OF TREATING CANCER AND PREVENTING CANCER DRUG RESISTANCE” (Genentech, Inc., priority 2014, published 2017).
“Also recorded” adds a separate entry of the source.

Experiments:
G9aK185me3 = experiment: G9a auto-methylation (FIG. 3B); type: cell-based
Protocol: Cell lysates were prepared in Laemmli sample buffer and analyzed by immunoblotting as described previously.

Colo205 DTPs = experiment: Colo205 DTP formation, AZ628; type: cell-based, human; conditions: DTPs upon treatment with AZ628; FIG. 11B
Protocol: (§1) 2×10^5 cells were plated in each well of a 6-well cluster dish. 24 hours after plating, media was removed and replaced with media containing drugs. Fresh media was replaced every 2 days until untreated cells reached confluence. Media was then removed, cells were washed with Phosphate Buffered Saline (PBS), and then fixed for 15 min with 4% formaldehyde in PBS. Cells were then washed with PBS and stained with the fluorescent nucleic acid stain, Syto60 ([…] in PBS; Molecular Probes) for 15 min. Dye was removed, cell monolayers were washed with PBS, and fluorescence quantitation was carried out at 700 nm with an Odyssey Infrared Imager (Li-Cor Biosciences). In some setting, RFP nuc red cells were used rather than Syto60.
(§2) Drug-sensitive cells were treated with relevant drug as described herein at concentrations exceeding 100 times the established IC50 values, for three rounds, with each treatment lasting 72 hours. […]
(§3) Specifically for Tarceva, GDC-0980, GDC-0973, AZ628, and Lapatinib DTPs, cells were plated and grown to 60-70% confluency then treated with Tarceva (0.1, 0.2, 0.5, and/or 1 uM), GDC-0980 (2 uM), GDC-0973 (1 uM), AZ628 (2 uM) and Lapatinib (1 uM). DTPs were collected and analyzed 1 week after the final dose of chemotherapy. […]

parental PC9 cells = experiment: Viability of parental PC9 cells; type: cell-based, human; conditions: shown concentrations; FIG. 6B
Protocol: as §1
(§4) Generally, for G9a inhibitor experiments cells were treated with active compound at 0.1, 0.2, 0.5 and/or 1 uM of the G9a inhibitor, UNC0638, for 3-5 days prior to chemotherapy treatment and were maintained on drug for the duration of the study.

methylation of H3K9 = experiment: H3K9 methylation by Western blotting and mass spectrometry (FIG. 3A); type: cell-based
Protocol: as §4
(§5) Cell lysates were prepared in Laemmli sample buffer and analyzed by immunoblotting as described previously. Cell lystates were analyzed using commercial antibodies against modifications on H3 (Abcam, Active Motif, and Cell Signaling Technologies).
Samples with 10 million cells were lysed and histones were isolated from cell lysates using the Active Motif Histone Purification Kit (world wide web activemotif.com/catalog/171.html). Protein quantitation post-isolation was performed using the Qubit fluorescence platform (Invitrogen). The target yield was at least 20 μg or greater of purified histone per 5 million cells. The samples were then derivatized and binary comparisons using d0/d10 propionic anhydride and trypsin digestion was conducted. […]
Peptide digests were analyzed by nano LC/MS/MS in data-dependent mode on a LTQ Orbitrap Velos tandem mass spectrometer. […] Trypsin-digested propionylated samples were quantitated within each LC/MS run by comparing d0/d5 pairs (according to the work of Garcia et al., JPR, 8, 5367-5374 (2009)). Alternate enzyme samples were quantitated label-free between LC/MS runs.

H3K9 methylation [1] = experiment: H3K9 methylation in EVSA-T cells (FIG. 8A); type: cell-based; conditions: human breast cancer cell line EVSA-T
Protocol: as §4, §5

H3K9me2 levels = conditions: Vedadi et al. 2011; Sweis et al. 2014; cited from earlier work
EVSA-T DTPs = experiment: EVSA-T DTP formation, GDC-0980; type: cell-based, human; conditions: DTPs upon treatment with GDC-0980; FIG. 8B
Protocol: as §1, §2, §3

PC9 DTPs = experiment: PC9 drug tolerant persister (DTP) formation/viability, Tarceva; type: cell-based, human
Protocol: as §1, §2, §3

H3K9 methylation [2] = experiment: H3K9 methylation in M14 cells (FIG. 10A); type: cell-based; conditions: human melanoma cell line M14
Protocol: as §4, §5

H3K9 methylation [3] = experiment: H3K9 methylation Western blot in PC9 cells (FIG. 6A); type: cell-based, human
Protocol: as §4, §5

H3K9 methylation [4] = experiment: H3K9 methylation in Colo205 cells (FIG. 11A); type: cell-based; conditions: human colon cancer cell line Colo205
Protocol: as §4, §5

Colo205 parental cells = experiment: Viability of Colo205 parental cells; type: cell-based, human; conditions: shown concentrations; FIG. 11B
Protocol: as §1, §4

H3K9 methylation [5] = experiment: H3K9 methylation in SKBR3 cells (FIG. 9A); type: cell-based; conditions: human breast adenocarcinoma cell line SKBR3
Protocol: as §4, §5

M14 parental cells = experiment: Viability of M14 parental cells; type: cell-based, human; conditions: shown concentrations; FIG. 10B
Protocol: as §1, §4

M14 DTPs = experiment: M14 DTP formation, GDC0973; type: cell-based, human; conditions: DTPs upon treatment with GDC0973; FIG. 10B
Protocol: as §1, §2, §3

SKBR3 DTPs = experiment: SKBR3 DTP formation, Lapatinib; type: cell-based, human; conditions: DTPs upon treatment with Lapatinib; FIG. 9B
Protocol: as §1, §2, §3

SKBR3 parental cells = experiment: Viability of SKBR3 parental cells; type: cell-based, human; conditions: shown concentrations; FIG. 9B
Protocol: as §1, §4

EVSA-T parental cells = experiment: Viability of EVSA-T parental cells; type: cell-based, human; conditions: shown concentrations; FIG. 8B
Protocol: as §1, §4

COc1cc2c(NC3CCN(C(C)C)CC3)nc(C3CCCCC3)nc2cc1OCCCN1CCCC1 [UNC0638]
inhibition of auto-methylation G9aK185me3 (G9aK185me3): inhibits auto-methylation G9aK185me3 | number of Colo205 DTPs formed after pre-treatment (Colo205 DTPs): dose dependent reduction in the number of Colo205 DTPs formed | viability of the parental PC9 cells (parental PC9 cells): do not affect the viability of the parental PC9 cells | inhibition of methylation of H3K9 (methylation of H3K9): capable of inhibiting methylation of H3K9 | H3K9 methylation (me1, me2, me3) (H3K9 methylation [1]): reduces H3K9 methylation (e.g., me1, me2, and me3) in a dose dependent manner | H3K9me2 levels (H3K9me2 levels): reduces H3K9me2 levels in a concentration dependent manner | number of EVSA-T DTPs formed after pre-treatment (EVSA-T DTPs): dose dependent reduction in the number of EVSA-T DTPs formed | viability/number of PC9 DTPs generated via treatment with Tarceva (PC9 DTPs; Tarceva, FIGS. 5 and 7): reduces the number of the non-small cell lung cancer cell line, PC9, DTPs; also recorded: reduced the viability of PC9 DTPs | number of DTPs formed after pre-treatment (PC9 DTPs; varying doses of UNC0638 pre-treatment, FIG. 6B): reducing the number of PC9 DTPs; also recorded: dose dependent reduction in the number of DTPs formed | H3K9 methylation (me1, me2, me3) (H3K9 methylation [2]): reduces H3K9 methylation (e.g., me1, me2, and me3) in a dose dependent manner | H3K9 methylation (me1, me2, me3) (H3K9 methylation [3]): reduced methylation of H3K9; also recorded: reduces H3K9 methylation (e.g., me1, me2, and me3) in a dose dependent manner | H3K9 methylation (me1, me2, me3) (H3K9 methylation [4]): reduces H3K9 methylation (e.g., me1, me2, and me3) in a dose dependent manner | viability of the Colo205 parental cells (Colo205 parental cells): do not affect the viability of the Colo205 parental cells | H3K9 methylation (me1, me2, me3) (H3K9 methylation [5]): reduces H3K9 methylation (e.g., me1, me2, and me3) in a dose dependent manner | viability of the M14 parental cells (M14 parental cells): do not affect the viability of the M14 parental cells | number of M14 DTPs formed after pre-treatment (M14 DTPs): dose dependent reduction in the number of M14 DTPs formed | number of SKBR3 DTPs formed after pre-treatment (SKBR3 DTPs): dose dependent reduction in the number of SKBR3 DTPs formed | viability of the SKBR3 parental cells (SKBR3 parental cells): do not affect the viability of the SKBR3 parental cells | viability of the EVSA-T parental cells (EVSA-T parental cells): do not affect the viability of the EVSA-T parental cells
